What all share (format): in vivo
The test system of test [1] is adult engorged female ticks (Rhipicephalus microplus). The test can be described thus: Rhipicephalus (Boophilus) microplus injection test. The following applies: 168 h, egg deposition monitored after 7 days, read-out: efficacy (infertile eggs); for pest or weed control at 4 µg/tick: 4 μg/tick injected; for pest or weed control at 20 µg/tick: 20 μg/tick injected. The method, boiled down: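 Five adult engorged female ticks each injected with 1 μL of DMSO compound solution into the abdomen, then kept in a climate chamber. Fertile egg deposition assessed after 7 days, with hatching followed to about 42 days; efficacy 100% means all eggs infertile, 0% all fertile.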

The test system of test [2] is brown planthopper (Nilaparvata lugens). The test can be described thus: Nilaparvata lugens spray test. The settings on record: 96 h, after 4 days, rice plants. As to the method:
Nilaparvata lugens—Spray Test • Solvent: 78.0 parts by weight of acetone • 1.5 parts by weight of dimethylformamide • Emulsifier: alkylarylpolyglycol ether
To produce a suitable preparation of active compound, 1 part by weight of active compound is mixed with the stated amount of solvents and is diluted with water, containing an emulsifier concentration of 1000 ppm, to the desired concentration. Further test concentrations are prepared by dilution with emulsifier containing water.
Rice plants (Oryza sativa) are sprayed with a preparation of the active ingredient of the desired concentration and the plants are infested with the brown planthopper (Nilaparvata lugens).
After 4 days mortality in % is determined. 100% means all planthoppers have been killed and 0% means none of the planthoppers have been killed.

The subject of test [3] is larvae of the southern green stink bug (Nezara viridula). In words: Nezara viridula spray test. The settings on record: 96 h, after 4 days, barley plants. The method, boiled down:
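Compound in acetone/DMF was diluted in water with 1000 ppm alkylarylpolyglycol ether emulsifier. Barley plants were sprayed with it, then infested with Nezara viridula larvae. Mortality % was scored after 4 days (100% = all killed).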

Test [4] has as its system larvae of the banded cucumber beetle (Diabrotica balteata). The test can be described thus: Diabrotica balteata spray test. The following applies: 168 h, after 7 days, wheat seeds, read-out: efficacy (seedling growth); for pest or weed control at 160 µg/disc, 500 g/ha: 500 g/ha (=160 μg/well); for pest or weed control at 32 µg/disc, 100 g/ha: 100 g/ha (=32 μg/well). The method, boiled down:
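Germinated wheat seeds on agar (5 per well) were sprayed with compound formulated in acetone/DMF and diluted in water with 1000 ppm emulsifier. Each unit was then infested with 10–20 larvae. Efficacy % was scored after 7 days as seedling growth relative to an untreated, uninfested control (100% = normal growth).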

The subject of test [5] is adult flies Musca domestica strain WHO-N. The test can be described thus: Musca domestica test (MUSCDO surface treatment & contact assay). The settings on record: surface concentration 20 mg/m^2, 30 minutes exposure, 24 hours after contact, read-out: efficacy (mortality). The method, boiled down:
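Compound dissolved in acetone (2 mg/ml) with 2000 ppm rapeseed oil methyl ester and dried onto glazed tiles. Adult WHO-N strain flies were held on the treated surface for 30 minutes, with % mortality scored 24 hours after contact.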

In test [6] the test system is fall armyworm larvae (Spodoptera frugiperda). In words: Spodoptera frugiperda spray test. The settings on record: in Zea mays, 168 h. The method, boiled down: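 Maize leaf sections were sprayed with compound in acetone/dimethylformamide diluted in water with 1000 ppm emulsifier, dried, then infested with larvae. Mortality in % was scored after 7 days, 100% meaning all caterpillars killed.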

The subject of test [7] is adult cat fleas (Ctenocephalides felis). The test can be described thus: Ctenocephalides felis in-vitro contact test, adult cat flea. The settings on record: 5 μg/cm^2 (=500 g/ha), after 48 hours, read-out: efficacy (fleas dead or moribund). The method, boiled down: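 Compound in acetone coated onto inner walls of glass tubes (900 ppm solution giving 5 μg/cm^2); after drying, 5-10 adult fleas added and kept at room temperature. At 48 h, fleas placed on 45-50 °C plate ≤5 min; immotile or uncoordinated ones scored dead/moribund; efficacy as % dead/moribund.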

Test [8] deals with Rhipicephalus (Boophilus) microplus larvae (strain Parkhurst, resistant against synthetic pyrethroids). The test can be described thus: Rhipicephalus (Boophilus) microplus in-vitro contact test, larval cattle tick. The settings on record: 5 μg/cm^2 (=500 g/ha), after 48 hours, read-out: efficacy (larvae dead or moribund). The method, boiled down:
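Acetone solutions coated onto glass tube walls, 900 ppm giving 5 μg/cm^2; 20–50 larvae per tube after solvent evaporation. Incubated 48 h at 27 °C, 85% relative humidity; efficacy from negative geotaxis, 100% meaning all larvae dead or moribund.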

Test [9] has as its system adult unfed cat fleas (Ctenocephalides felis). In words: Ctenocephalides felis oral test. The following applies: 48 h, 100 ppm in cattle blood, after 2 days. As for the experimental part: Ctenocephalides felis—Oral Test
• Solvent: dimethyl sulfoxide
To produce a suitable preparation of active compound, 10 mg of active compound are dissolved in 0.5 mL solvent, and the concentrate is diluted with cattle blood to the desired concentration.
Approximately 20 adult unfed cat fleas (Ctenocephalides felts) are placed in flea chambers. The blood chamber, sealed with parafilm on the bottom, are filled with cattle blood supplied with compound solution and placed on the gauze covered top of the flea chamber, so that the fleas are able to suck the blood. The blood chamber is heated to 37° C. whereas the flea chamber is kept at room temperature.
After 2 days mortality in % is determined. 100% means all the fleas have been killed; 0% means none of the fleas have been killed.

In test [10] the test system is green peach aphid (Myzus persicae). In words: Myzus persicae spray test. The settings on record: foliar, 120 h, after 5 days, Chinese cabbage leaf disks. A digest of the protocol: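 Chinese cabbage leaf disks infested with all aphid instars were sprayed with compound in acetone/DMF, diluted in water with 1000 ppm alkylarylpolyglycol ether emulsifier. Mortality (%) scored after 5 days, 100% meaning all aphids killed.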

Take `Cc1cc(OC2CCCC2)cc(C(=O)N[C@@H](C)c2ncnn2-c2ccc(C#N)cn2)c1` [Example I-4, N-{(1S)-1-[1-(5-Cyanopyridin-2-yl)-1H-1,2,4-triazol-5-yl]ethyl}-3-(cyclopentyloxy)-5-methylbenzamide]: in test [1], the pest or weed control at 4 µg/tick was found to be 100% and the pest or weed control at 20 µg/tick was 100%. The mortality (in general, the share of the test organisms that died) at 100 g/ha in test [2] amounted to 100%. Besides, the mortality at 100 g/ha in test [3] is 100%. For the same molecule, the pest or weed control at 160 µg/disc, 500 g/ha in [4] is 100%.

Regarding `C[C@H](NC(=O)c1cc(Cl)cc(C(C)(C)C#N)c1)c1nc(C2CC2)nn1-c1ccc(C#N)cn1` [Example I-38], in test [5], the mortality at 20 mg/m2 was 80 to 100%. Moreover, the mortality at 100 g/ha in test [6] stood at 100%; in test [3] it was 90%. In addition, the mortality at 500 g/ha in test [2] and in test [3] was 100% each time. The pest or weed control at 32 µg/disc, 100 g/ha in test [4] worked out at 100%.

As for `Cc1cc(OC2COC2)cc(C(=O)N[C@@H](C)c2ncnn2-c2ccc(C#N)cn2)c1` [Example I-6, N-{(1S)-1-[1-(5-Cyanopyridin-2-yl)-1H-1,2,4-triazol-5-yl]ethyl}-3-methyl-5-(oxetan-3-yloxy)benzamide], the mortality at 500 g/ha in test [6] is 100%. The pest or weed control at 4 µg/tick in test [1] was 100%. The pest or weed control at 20 µg/tick in [1] was determined as 100%. The mortality at 100 g/ha in test [2] and in [3] was 100% in each case. Moreover, the pest or weed control at 5 µg/cm2, 5 µg/cm2 came to 100% in test [7] and 90% in test [8]. In addition, in test [4], the pest or weed control at 160 µg/disc, 500 g/ha is 100%. Also, the mortality at 100 ppm in test [9] is 100%.

On to `Cc1nc([C@H](C)NC(=O)c2cc(OC(F)(F)F)cc(C(C)(C)C#N)c2)n(-c2ncc(C#N)s2)n1` [Example I-51], for which, in test [6], the mortality at 100 g/ha was determined as 100%. Moreover, the mortality at 500 g/ha in [2] and in [3] was 100% each time. The pest or weed control at 32 µg/disc, 100 g/ha in test [4] was 100%.

As to `C[C@H](NC(=O)c1cc(OC(F)(F)F)cc(C(C)(C)C#N)c1)c1ncnn1-c1cc(C#N)ncn1` [Example I-66], the mortality at 100 g/ha in test [6] and in [10] was 100% each time. The mortality at 500 g/ha in test [2] and in test [3] was 100% throughout. In addition, the pest or weed control at 32 µg/disc, 100 g/ha in [4] was 100%.

Values taken from patent US12653190B2, “Heteroaryl-triazole compounds as pesticides” (Bayer Aktiengesellschaft, priority 2020, dated 2026).
